Several values for one entry are separate records, joined by “and”; a condition that tells them apart may be missing. Identical values can stand only once. Entries after “also recorded” stand apart in the source; their conditions may differ.
Assays:
Xenopus oocytes [1] = experiment: PKC-mediated Xenopus oocyte maturation (germinal vesicle breakdown, GVBD) after peptide microinjection; type: cell-based; settings: for plateau % GVBD (fraction of oocytes reaching maturation) following insulin exposure: peptide 50 μM, 50 nl microinjected, 20 h time course
Protocol: Exposure to insulin induces maturation in Xenopus oocytes via a PKC-dependent pathway (Smith, et al., 1992). The maturation response may be quantified by monitoring the appearance of a white spot in the animal hemisphere of the oocyte, indicating germinal vesicle breakdown (GVBD) and maturation. To assess the effects of RACK1 WD-40-derived peptides on insulin-induced PKC-mediated maturation, 50 nl of a 20 mM NaCl solution containing the indicated peptides [peptide I (SEQ ID NO:1; ●), peptide rVI (SEQ ID NO:7; ▪), or injection solution (□)] (peptides at 50 μM) were microinjected into Xenopus oocytes. […] One hour following the peptide injections, the oocytes were exposed to a solution containing insulin (8.25 μg/ml) for 2 minutes (t=0). 10-15 oocytes were used for each sample.
The data, representative of three independent experiments, are expressed as the percent of oocytes with GVBD following insulin exposure and are plotted as a function of time in FIG. 5.

βPKC [2] = target: T1, βPKC (Rattus norvegicus, UniProt P68403); experiment: Sensitivity of βPKC to Arg-C endopeptidase (nicking); type: biochemical; settings: low activators: 2.5 μg/ml PS and 50 μM CaCl2; for nicking of βPKC by Arg-C (78 kDa fragment): peptide 10 μM
T1 construct: All the solutions contained 5 nM rat brain PKC; from tissue; host or cells: rat brain
T1 sequence (P68403 whole entry, the tested form may be a part): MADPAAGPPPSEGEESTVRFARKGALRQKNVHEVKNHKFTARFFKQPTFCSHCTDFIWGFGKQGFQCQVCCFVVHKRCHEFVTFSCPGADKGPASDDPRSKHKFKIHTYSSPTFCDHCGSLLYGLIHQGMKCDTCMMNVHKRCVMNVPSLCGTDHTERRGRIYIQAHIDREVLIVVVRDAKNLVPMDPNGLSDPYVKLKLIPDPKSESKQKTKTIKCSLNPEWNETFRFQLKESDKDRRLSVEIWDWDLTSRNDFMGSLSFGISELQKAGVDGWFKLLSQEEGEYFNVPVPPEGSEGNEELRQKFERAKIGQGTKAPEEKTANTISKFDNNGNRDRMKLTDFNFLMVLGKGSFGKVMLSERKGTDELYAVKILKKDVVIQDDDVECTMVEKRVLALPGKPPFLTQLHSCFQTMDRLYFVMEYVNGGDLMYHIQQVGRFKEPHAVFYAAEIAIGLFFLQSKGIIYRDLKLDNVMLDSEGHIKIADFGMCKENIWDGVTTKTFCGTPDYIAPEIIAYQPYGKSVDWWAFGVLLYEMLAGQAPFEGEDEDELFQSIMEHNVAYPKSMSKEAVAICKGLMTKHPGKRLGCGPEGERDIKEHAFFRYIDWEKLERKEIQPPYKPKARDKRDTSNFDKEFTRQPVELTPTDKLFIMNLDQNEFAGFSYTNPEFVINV
Source text: Upon activation of PKC, a pseudosubstrate autoinhibitory sequence at the N-terminus of the molecule dissociates from the catalytic site and becomes sensitive to endopeptidase Arg-C (Orr, et al.). In the absence of PKC activators, exposure of the 80 kDa βPKC to endopeptidase Arg-C has no effect on the enzyme (see FIG. 7, lane 1). In the presence of the PKC activators PS, DG and calcium, however, exposure of βPKC to Arg-C results in a “nicking” of the PKC (i.e. limited proteolysis generating a 78 kDa fragment and several small fragments (see FIG. 7, lane 2)). Continued exposure to Arg-C results in the disappearance of βPKC (Orr, et al.). The present experiment tests whether peptides derived from the WD-40 region of RACK1 alter the sensitivity of βPKC to endopeptidase Arg-C.
The methods used to assay Arg-C sensitivity are a modification of methods described by Orr, et al. Rat brain PKC (˜5 nM) was incubated at room temperature in 500 μl of 20 mM Tris-HCl buffer (pH 7.5) alone or with Arg-C (5 units/ml) in the presence or absence of the indicated peptides (final concentration 10 μM or as indicated), PS, DG, and calcium (as indicated). 50 μl aliquots were removed into 20 μl of sample buffer during the reaction as indicated (samples in all the lanes were incubated for 30 minutes , except lanes 5, and 6, which were incubated for 5 and 15 minutes, respectively). The samples were boiled for 10 minutes at 80° C. and loaded onto 8% SDS-PAGE. βPKC was detected by Western blot analysis using anti-βPKC antibodies as described in Examples 6 and 8.
PKC was incubated for the indicated time alone (lane 1) or in the presence of Arg-C (lanes 2-9), with DG (0.8 μg/ml), PS (50 μg/ml) and CaCl2 (1 mM; lane 2), with PS (50 μg/ml) and CaCl2 (1 mM; lane 3), with PS (2.5 μg/ml) and CaCl2 (50 μM; lane 4); with PS (2.5 μg/ml), CaCl2 (50 μM) and with either peptide rVI (SEQ ID NO:7; 10 μM; lanes 5-7), control peptide (SEQ ID NO:9; lane 8) or with peptide I (SEQ ID NO:1; lane 9).

βPKC [3] = target: T1, βPKC; experiment: PKC overlay of peptides immobilized on nitrocellulose (slot blot); type: binding; settings: for binding of activated PKC to immobilized peptide: 5 nM rat brain PKC with PS; for binding of activated PKC to immobilized peptide / lowest peptide amount at which activated PKC bound: DG and calcium; for binding of unactivated PKC to immobilized peptide: 5 nM rat brain PKC without PS, DG, calcium; for lowest peptide amount at which activated PKC bound: PKC with PS, 0.5-10.0 μmole peptide applied
Protocol: The binding of βPKC to peptide I (SEQ ID NO:1), peptide rVI (SEQ ID NO:7) and control peptide (SEQ ID NO:9) was assessed using a PKC overlay assay similar to that described in Example 3. Increasing amounts of peptides (0.5 μmole, 1.0 μmole, 5.0 μmole and 10.0 μmole) suspended in 20 mM NaCl were applied individually onto nitrocellulose using a slot-blot apparatus (Schleicher and Schuell, Keene, N.H.). The nitrocellulose membrane was washed three times, 15 minutes per wash, in peptide overlay buffer and incubated for two hours in peptide overlay block buffer. The membrane was cut into sections and the sections were transferred to different PKC-containing solutions and incubated for 30 minutes at room temperature. All the solutions contained 5 nM rat brain PKC in peptide overlay buffer. Some solutions additionally contained PS, DG, and calcium. The membranes were then washed three times, 15 minutes per wash, in peptide overlay buffer and incubated in peptide overlay block buffer containing anti-βPKC monoclonal antibodies (1:1000 dilution; Seikagaku Kogyo, Tokyo, Japan). After a 16 hr incubation at room temperature, the filters were washed three times, 15 minutes per wash, in peptide overlay buffer.
Binding of PKC was determined using chemiluminescence as described in Example 3, part C. Quantitation of PKC binding was carried out using a “MICRO SCAN” 1000 gel analyzer (Galai Inc., Yokneam, Israel).

Xenopus oocytes [4] = experiment: PKC-mediated Xenopus oocyte maturation (germinal vesicle breakdown, GVBD) after peptide microinjection; type: cell-based; settings: for dose dependence of effect on GVBD: between 5 μm-500 μM
[5] = peptide 50 μM microinjected, insulin 8.25 μg/ml
[6] = peptide 50 μM alone, no insulin

Substance	plateau % GVBD (fraction of oocytes reaching maturation) following insulin exposure (Xenopus oocytes [1]; insulin 8.25 μg/ml)	nicking of βPKC by Arg-C (78 kDa fragment) (βPKC [2])	binding of activated PKC to immobilized peptide (βPKC [3])	binding of unactivated PKC to immobilized peptide (βPKC [3])	lowest peptide amount at which activated PKC bound (βPKC [3]) [µmol]	dose dependence of effect on GVBD (Xenopus oocytes [4])	delay to onset of maturation after exposure to insulin (Xenopus oocytes [1]; [5]) [h]	time to reach GVBD plateau after insulin exposure (Xenopus oocytes [1]; [5]) [h]	effect on insulin-induced oocyte maturation (in words) (Xenopus oocytes [1]; peptide microinjected, insulin)	lowest peptide concentration sufficient to result in nicking activity (βPKC [2]) [nM]	delay to initiation of maturation in the absence of insulin (Xenopus oocytes [4]; [6]) [h]	induction of GVBD in the absence of insulin (Xenopus oocytes [4]; [6])	plateau % GVBD in the absence of insulin (Xenopus oocytes [4]; [6])
peptide I: 15-residue peptide homologous to a sequence in the sixth WD-40 repeat of RACK1; PKC antagonist (KGDYEKILVALCGGN)	45-50%	did not result in appreciable nicking activity; also recorded: did not occur	bound	did not bind	5	dose-dependent	–	–	–	–	–	–	–
peptide rVI: eight amino acid peptide identical to a segment of RACK1 WD-40 repeat VI (DIINALCF)	~100% and 95-100%	time-dependent appearance of the 78 kDa nicked PKC fragment	bound	did bind	5	dose-dependent	3 to 4	≤ 5	potentiates the effects of insulin on oocyte maturation	10	6 to 7	induced oocyte maturation; also recorded: induced GVBD	about 50%

— patent US6342368B1, “WD-40-derived peptides and uses thereof” (The Board of Trustees of the Leland Stanford Junior …, priority 1994, dated 2002)
